Reference: patent US8003660B2, “Modulators of muscarinic receptors” (Vertex Pharmaceuticals Incorporated, priority 2006, dated 2011)

Assays:
Type in all cases: cell-based
M2 muscarinic receptor = target: T1, M2 muscarinic receptor (Homo sapiens, UniProt P08172); assay: Functional mobilization of intracellular calcium (FLIPR) in CHO cells expressing M2; conditions: for M2 Activity: CHO cells expressing M2, FLIPR calcium assay; for Emax: CHO, 100% efficacy = maximum response obtained with the Carbachol control
T1 construct: expressed in transfected cells; host or cells: CHO (M2-CHO)
T1 sequence (P08172 1-466): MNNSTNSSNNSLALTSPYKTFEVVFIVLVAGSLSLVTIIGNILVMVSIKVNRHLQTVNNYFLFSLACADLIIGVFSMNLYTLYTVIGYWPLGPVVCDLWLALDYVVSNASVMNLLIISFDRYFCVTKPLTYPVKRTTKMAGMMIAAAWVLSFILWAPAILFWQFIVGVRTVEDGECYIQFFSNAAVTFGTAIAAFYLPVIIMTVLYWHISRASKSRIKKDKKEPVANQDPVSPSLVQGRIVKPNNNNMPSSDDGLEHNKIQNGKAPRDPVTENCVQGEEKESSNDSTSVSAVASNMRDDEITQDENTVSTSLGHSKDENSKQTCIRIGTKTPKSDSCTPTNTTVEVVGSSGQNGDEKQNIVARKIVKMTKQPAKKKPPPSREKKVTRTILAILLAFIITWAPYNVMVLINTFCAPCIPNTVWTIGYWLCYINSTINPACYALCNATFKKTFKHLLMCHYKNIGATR
Procedure, shortened: (§1)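 Recombinant CHO cells loaded with Fluo-3 AM or Calcium 3 dye in pH 7.4 buffer containing 1 mM probenecid, with 0.5% final DMSO. For agonism, compound is added directly. For inhibition, it is preincubated 15 min, or co-applied, before carbachol at EC80. FLIPR fluorescence (ex 488, em 540 nm) is recorded for 60 s.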

M3 muscarinic receptor = target: T2, M3 muscarinic receptor (Homo sapiens, UniProt P20309); assay: Functional mobilization of intracellular calcium (FLIPR) in CHO cells expressing M3; conditions: for M3 Activity: CHO cells expressing M3, FLIPR calcium assay; for Emax: CHO, 100% efficacy = maximum response obtained with the Carbachol control
T2 construct: expressed in transfected cells; host or cells: CHO (M3-CHO)
T2 sequence (P20309 whole entry): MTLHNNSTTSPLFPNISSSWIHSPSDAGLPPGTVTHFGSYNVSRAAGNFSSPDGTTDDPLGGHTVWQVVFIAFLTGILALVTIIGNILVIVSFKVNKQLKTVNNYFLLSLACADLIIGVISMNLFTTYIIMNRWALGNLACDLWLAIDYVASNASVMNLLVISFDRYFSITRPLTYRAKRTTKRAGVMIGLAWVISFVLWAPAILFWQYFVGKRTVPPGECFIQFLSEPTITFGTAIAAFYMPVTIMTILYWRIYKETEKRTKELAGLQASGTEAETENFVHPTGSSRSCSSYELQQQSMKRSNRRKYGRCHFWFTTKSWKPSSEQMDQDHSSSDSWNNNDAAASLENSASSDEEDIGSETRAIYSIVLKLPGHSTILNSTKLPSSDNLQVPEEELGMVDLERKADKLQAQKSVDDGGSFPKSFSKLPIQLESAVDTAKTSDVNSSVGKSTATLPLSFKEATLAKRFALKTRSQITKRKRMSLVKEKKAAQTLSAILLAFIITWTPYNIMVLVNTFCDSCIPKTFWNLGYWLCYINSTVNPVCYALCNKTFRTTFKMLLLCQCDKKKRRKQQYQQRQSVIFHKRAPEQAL
Procedure, shortened: as §1

M1 muscarinic receptor = target: T3, M1 muscarinic receptor (Homo sapiens, UniProt P11229); assay: Functional mobilization of intracellular calcium (FLIPR) in CHO cells expressing M1; conditions: for M1 Activity: CHO cells expressing M1, FLIPR calcium assay; for Emax: CHO, 100% efficacy = maximum response obtained with the Carbachol control
T3 construct: expressed in transfected cells; host or cells: CHO (M1-CHO)
T3 sequence (P11229 1-460): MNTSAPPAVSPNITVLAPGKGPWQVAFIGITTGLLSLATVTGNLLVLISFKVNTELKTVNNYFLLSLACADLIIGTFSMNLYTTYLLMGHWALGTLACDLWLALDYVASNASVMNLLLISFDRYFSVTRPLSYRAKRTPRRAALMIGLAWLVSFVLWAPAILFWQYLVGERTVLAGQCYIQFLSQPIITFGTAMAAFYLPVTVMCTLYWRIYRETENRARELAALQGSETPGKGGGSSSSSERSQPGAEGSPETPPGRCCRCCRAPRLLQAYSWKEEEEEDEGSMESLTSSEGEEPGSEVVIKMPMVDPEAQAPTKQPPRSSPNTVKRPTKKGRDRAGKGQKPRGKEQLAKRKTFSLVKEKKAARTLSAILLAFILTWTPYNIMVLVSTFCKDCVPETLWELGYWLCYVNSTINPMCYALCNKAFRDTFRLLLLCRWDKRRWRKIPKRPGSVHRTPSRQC
Procedure, shortened: as §1

M4 muscarinic receptor = target: T4, M4 muscarinic receptor (Homo sapiens, UniProt P08173); assay: Functional mobilization of intracellular calcium (FLIPR) in CHO cells expressing M4; conditions: for M4 Activity: CHO cells expressing M4, FLIPR calcium assay; for Emax: CHO, 100% efficacy = maximum response obtained with the Carbachol control
T4 construct: expressed in transfected cells; host or cells: CHO (M4-CHO)
T4 sequence (P08173 1-479): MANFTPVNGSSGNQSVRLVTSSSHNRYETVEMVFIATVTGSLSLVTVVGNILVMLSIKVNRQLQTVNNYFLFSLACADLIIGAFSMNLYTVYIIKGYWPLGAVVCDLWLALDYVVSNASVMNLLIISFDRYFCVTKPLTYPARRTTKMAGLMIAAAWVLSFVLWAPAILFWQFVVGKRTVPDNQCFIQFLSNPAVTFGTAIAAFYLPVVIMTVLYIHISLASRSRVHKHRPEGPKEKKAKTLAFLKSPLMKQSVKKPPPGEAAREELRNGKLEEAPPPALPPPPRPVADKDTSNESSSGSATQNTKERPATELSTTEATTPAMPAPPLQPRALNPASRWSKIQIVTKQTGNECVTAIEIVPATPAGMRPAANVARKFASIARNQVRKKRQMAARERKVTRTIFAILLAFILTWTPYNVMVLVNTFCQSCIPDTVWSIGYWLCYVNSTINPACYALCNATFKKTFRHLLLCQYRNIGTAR
Procedure, shortened: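 Calcium flux is read on FLIPR over 60 sec at 488/540 nm in muscarinic-receptor CHO lines. Antagonist mode adds carbachol at EC80 after 15 min compound preincubation or with simultaneous co-application. Agonist mode adds compound alone. Cells carry Fluo-3 or Calcium 3 dye in probenecid-containing pH 7.4 buffer, 0.5% DMSO final.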

| SMILES | M2 Activity (M2 muscarinic receptor) | Emax (M2 muscarinic receptor) [%] | M3 Activity (M3 muscarinic receptor) | Emax (M3 muscarinic receptor) [%] | M1 Activity (M1 muscarinic receptor) | Emax (M1 muscarinic receptor) [%] | M4 Activity (M4 muscarinic receptor) | Emax (M4 muscarinic receptor) [%] |
| --- | --- | --- | --- | --- | --- | --- | --- | --- |
| CC(=O)N[C@H]1CC2(CCN(C(C)CC(C)C)CC2)c2ccccc21 (stereo partly drawn) [compound 236] | + (activity was measured to be greater than 5.0 μM) | < 25 | + (activity was measured to be greater than 5.0 μM) | < 25 | + (activity was measured to be greater than 5.0 μM) | < 25 | + (activity was measured to be greater than 5.0 μM) | < 25 |
| COC(=O)CCCN1CCC2(CC1)C[C@H](NC(C)=O)c1ccccc12 [compound 237] | + (activity was measured to be greater than 5.0 μM) | < 25 | + (activity was measured to be greater than 5.0 μM) | < 25 | + (activity was measured to be greater than 5.0 μM) | 25 to 100 | + (activity was measured to be greater than 5.0 μM) | 25 to 100 |
| C/C=C(\C)CN1CCC2(CC1)C[C@H](NC(C)=O)c1ccccc12 [compound 238] | + (activity was measured to be greater than 5.0 μM) | < 25 | + (activity was measured to be greater than 5.0 μM) | < 25 | + (activity was measured to be greater than 5.0 μM) | < 25 | + (activity was measured to be greater than 5.0 μM) | < 25 |
| COc1cc2c(cc1OC)C1(CCN(C(=O)OC(C)(C)C)CC1)CC2=O [compound 239] | + (activity was measured to be greater than 5.0 μM) | < 25 | + (activity was measured to be greater than 5.0 μM) | < 25 | + (activity was measured to be greater than 5.0 μM) | < 25 | + (activity was measured to be greater than 5.0 μM) | < 25 |
| CCNC(=O)CN1CCC2(CC1)C[C@H](NC(C)=O)c1ccccc12 [compound 241] | + (activity was measured to be greater than 5.0 μM) | < 25 | + (activity was measured to be greater than 5.0 μM) | < 25 | + (activity was measured to be greater than 5.0 μM) | < 25 | + (activity was measured to be greater than 5.0 μM) | < 25 |
| C=CCCCN1CCC2(CC1)C[C@H](NC(C)=O)c1ccccc12 [compound 242] | + (activity was measured to be greater than 5.0 μM) | < 25 | + (activity was measured to be greater than 5.0 μM) | < 25 | + (activity was measured to be greater than 5.0 μM) | 25 to 100 | ++ (activity was measured to be from 2.0 μM to 5.0 μM) | 25 to 100 |
| CC(=O)N[C@H]1CC2(CCN(CC(C)(C)C)CC2)c2ccccc21 [compound 243] | + (activity was measured to be greater than 5.0 μM) | 25 to 100 | + (activity was measured to be greater than 5.0 μM) | < 25 | + (activity was measured to be greater than 5.0 μM) | 25 to 100 | +++ (activity was measured to be less than 2.0 μM) | 25 to 100 |
| CC(=O)N[C@H]1CC2(CCN(CCC(C)(C)C)CC2)c2ccccc21 [compound 244] | + (activity was measured to be greater than 5.0 μM) | < 25 | + (activity was measured to be greater than 5.0 μM) | < 25 | +++ (activity was measured to be less than 2.0 μM) | 25 to 100 | +++ (activity was measured to be less than 2.0 μM) | 25 to 100 |
| CC(C)(C)CN1CCC2(CC1)CC(C(=O)O)c1ccccc12 (stereo not drawn) [compound 246] | + (activity was measured to be greater than 5.0 μM) | < 25 | + (activity was measured to be greater than 5.0 μM) | < 25 | + (activity was measured to be greater than 5.0 μM) | < 25 | + (activity was measured to be greater than 5.0 μM) | < 25 |
| CC(C)CCN1CCC2(CC1)C[C@H](NC(=O)C1CC1)c1ccccc12 [compound 247] | + (activity was measured to be greater than 5.0 μM) | < 25 | + (activity was measured to be greater than 5.0 μM) | < 25 | + (activity was measured to be greater than 5.0 μM) | 25 to 100 | + (activity was measured to be greater than 5.0 μM) | < 25 |
| CC/C=C\CCCCCCN1CCC2(CC1)C[C@H](NC(C)=O)c1ccccc12 [compound 248] | + (activity was measured to be greater than 5.0 μM) | < 25 | + (activity was measured to be greater than 5.0 μM) | < 25 | ++ (activity was measured to be from 2.0 μM to 5.0 μM) | 25 to 100 | + (activity was measured to be greater than 5.0 μM) | 25 to 100 |
| CC(C)(C)CCN1CCC2(CC1)CC(C(=O)O)c1ccccc12 (stereo not drawn) [compound 250] | + (activity was measured to be greater than 5.0 μM) | < 25 | + (activity was measured to be greater than 5.0 μM) | < 25 | + (activity was measured to be greater than 5.0 μM) | 25 to 100 | + (activity was measured to be greater than 5.0 μM) | 25 to 100 |
| CC(C)(C)CCN1CCC2(CC1)C[C@H](NC(=O)N1CCCC1)c1ccccc12 [compound 251] | + (activity was measured to be greater than 5.0 μM) | < 25 | + (activity was measured to be greater than 5.0 μM) | < 25 | + (activity was measured to be greater than 5.0 μM) | < 25 | + (activity was measured to be greater than 5.0 μM) | < 25 |
| Cc1ccc2c(c1)C(=O)CC21CCN(C(=O)OC(C)(C)C)CC1 [compound 252] | + (activity was measured to be greater than 5.0 μM) | < 25 | + (activity was measured to be greater than 5.0 μM) | < 25 | + (activity was measured to be greater than 5.0 μM) | < 25 | + (activity was measured to be greater than 5.0 μM) | < 25 |
| CC(=O)N[C@H]1CC2(CCN(CCC(C)(C)C)CC2)c2ccc(C)cc21 [compound 253] | + (activity was measured to be greater than 5.0 μM) | < 25 | + (activity was measured to be greater than 5.0 μM) | < 25 | + (activity was measured to be greater than 5.0 μM) | < 25 | + (activity was measured to be greater than 5.0 μM) | 25 to 100 |
